According to PMC4850295, “Using a Genetically Encoded Sensor to Identify Inhibitors of Toxoplasma gondii Ca^2+ Signaling” (The Journal of Biological Chemistry, 2016):
Where “and” joins values, the source holds several entries; their conditions need not be identical. Equal values may be shown once. Read-outs that look alike come from different tables or passages of the source.

Test system: T1, GCaMP5-expressing T. gondii
T1 construct: whole extracellular parasites expressing GCaMP5 Ca2+ sensor
Parameters: species or system GCaMP5-expressing Toxoplasma gondii, extracellular; GCaMP5 fluorescence (cytosolic Ca2+) after 100 uM zaprinast in compound-pretreated extracellular parasites, background-subtracted, relative to zaprinast alone
Conditions: 0.23 h; for fold change in fluorescence relative to zaprinast alone: 100 uM zaprinast stimulation, 10 min pretreatment, mean of two replicates
Outline: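 Read-out is GCaMP5 calcium fluorescence (ex 485/em 525 nm) taken 4 min after 100 μM zaprinast at 37 °C, following 10 min compound pretreatment at 10 μM in duplicate biological replicates. Values are basal-subtracted fold change versus zaprinast-only controls; parasites held extracellular in Ringer's solution.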

| Structure (SMILES) | fold change in fluorescence relative to zaprinast alone | other results |
| --- | --- | --- |
| c1ccc(-c2ccc3c(Nc4ccc5[nH]ncc5c4)ccnc3c2)nc1 [GW440137A] | 1.678 | – |
| c1ccc(-c2ccc3c(Nc4ccc5[nH]ccc5c4)ccnc3c2)nc1 [GW440138A] | 1.081 | – |
| Cc1ccc(O)cc1Nc1ccnc2cc(-c3ccccn3)ccc12 [GW440139B] | 1.023 | – |
| Cc1ccc(C(=O)Nc2ccc(Nc3ccnc4cc(-c5ccccn5)ccc34)cc2O)cc1 [GW440146A] | 2.166 | – |
| CC(=O)Nc1ccc(COc2ccc(Nc3ccnc4cc(-c5ccccn5)ccc34)cc2)cc1 [GW440148A] | 1.657 | – |
| Cn1cc(C=C2C(=O)Nc3cccnc32)c2ccccc21 [GW441756X] | 1.234 | – |
| Cc1cc(O)cc(C)c1/C=C/c1cncc(-c2nn[nH]n2)c1 [GW441806A] | 1.117 | – |
| CNC(=O)c1cncc(/C=C/c2c(C)cccc2C)c1 [GW445012X] | 1.157 | – |
| CNC(=O)c1cncc(/C=C/c2c(Cl)cccc2Cl)c1 [GW445014X] | 1.122 | – |
| CNC(=O)c1cncc(/C=C/c2ccccc2C)c1 [GW445015X] | 1.264 | – |
| CCc1cccc(CC)c1/C=C/c1cncc(C(=O)NC)c1 [GW450241X] | 1.076 | – |
| Cc1ccn2nc(-c3ccc(F)cc3)c(-c3ccncc3)c2c1 [GW457859A] | 0.07245 | – |
| Cc1cc(-c2ccco2)cc(C)c1/C=C/c1cncc(-c2nn[nH]n2)c1 [GW458344A] | 1.482 | – |
| CS(=O)(=O)CCNCc1ccc(-c2ccc3ncnc(Nc4ccc(OCc5ccccc5)cc4)c3c2)o1 [GW458787A] | 0.4223 | – |
| CS(=O)(=O)CCNCc1nc(-c2ccc3ncnc(Nc4ccc(F)c(Cl)c4)c3c2)cs1 [GW461104B] | 0.6524 | – |
| Cc1ccc2c(-c3ccncc3)c(-c3ccc(F)cc3)nn2c1 [GW461484A] | 0.2133 | – |
| Cc1cccc2c(-c3ccncc3)c(-c3ccc(F)cc3)nn12 [GW461487A] | 0.2322 | – |
| Cc1c(O)cccc1Nc1ccnc2ccc(C(F)(F)F)cc12 [GW466413A] | 1.009 | – |
| COc1cccc2c(-c3ccncc3)c(-c3ccc(F)cc3)nn12 [GW468513X] | 0.06975 | – |
| Fc1ccc(-c2nn3cccc(F)c3c2-c2ccncc2)cc1 [GW475620X] | 0.2984 | – |
| CC(C)c1ccc(O)cc1Nc1ccnc2ccc(C(F)(F)F)cc12 [GW482059X] | 1.143 | – |
| CC(=O)c1c(-c2ccncc2)[nH]c(-c2ccncc2)c1C [GW493036X] | 1.057 | – |

| Structure (SMILES) | fold change in fluorescence relative to zaprinast alone | other results |
| --- | --- | --- |
| Oc1cccc(Nc2ccnc3cc(-c4ccncc4)ccc23)c1 [GW494601A] | 1.032 | – |
| COc1cc(Nc2ccnc3cc(-c4ccncc4)ccc23)cc(OC)c1OC [GW494610A] | 0.2498 | – |
| Cc1ccc(C(=O)Nc2ccc(Nc3ccnc4cc(-c5nccs5)ccc34)cc2O)cc1 [GW494702A] | 0.9828 | – |
| Cc1cc(NCC(c2ccccc2)c2ccccc2)nc(NCc2ccc(C(F)(F)F)cc2)n1 [GW497681X] | 1.268 | – |
| COc1cc(C=NNc2ncnc3c2cnn3-c2ccccc2)ccc1O [GW513184X] | 0.5493 | – |
| Fc1ccc(-c2nn3c(OCC(F)(F)F)cccc3c2-c2ccncc2)cc1 [GW514784X] | 0.04564 | – |
| CSc1cccc2c(-c3ccncn3)c(-c3ccc(F)cc3)nn12 [GW514786X] | 0.1155 | – |
| Cc1cccc2c(-c3ccncn3)c(-c3ccc(F)cc3)nn12 [GW515532X] | 0.6118 | – |
| Nc1nc(-c2ccccn2)c(-c2ccnc3ccccc23)s1 [GW548057X] | 0.7803 | – |
| c1ccc(Nc2ncc(-c3ccccc3)o2)cc1 [GW549390X] | 1.88 | – |
| Fc1cc(Cl)ccc1Nc1ccnc2cc(I)ccc12 [GW551191X] | 1.044 | – |
| Oc1cc(Nc2ccnc3cc(I)ccc23)ccc1F [GW552771X] | 0.9648 | – |
| Nc1n[nH]c2nnc(-c3ccccc3)c(-c3ccccc3)c12 [GW554060X] | 1.19 | – |
| Cc1ccc(O)cc1Nc1ccnc2cc(-c3ccc(CN4CCCCC4)o3)ccc12 [GW557777X] | 0.8105 | – |
| Cc1ccc(O)cc1Nc1ccnc2ccc(S(C)(=O)=O)cc12 [GW559768X] | 1.199 | – |
| Fc1cc(Cl)ccc1Nc1ccnc2cc(-c3ccc(CN4CCSCC4)o3)ccc12 [GW560106X] | 0.6773 | – |
| Fc1cc(Cl)ccc1Nc1ccnc2cc(-c3ccc(CN4CCOCC4)o3)ccc12 [GW560109X] | 0.545 | – |
| Fc1cc(Cl)ccc1Nc1ccnc2cc(-c3ccc(CN4CCCCC4)o3)ccc12 [GW560116X] | 0.6823 | – |
| N#Cc1ccc2c(-c3ccnc(NC4CC4)n3)c(-c3ccc(F)cc3)nn2c1 [GW561436X] | 0.8796 | – |
| CS(=O)(=O)CCNCc1coc(-c2ccc3ncnc(Nc4ccc(OCc5ccccc5)cc4)c3c2)c1 [GW566221B] | 0.9966 | – |
| CN1CCN(Cc2ccc(-c3ccc4c(Nc5ccc(Oc6ccccn6)cc5)ccnc4c3)o2)CC1 [GW567140X] | 1.304 | – |
| c1ccc(Oc2ccc(Nc3ccnc4cc(-c5ccc(CN6CCNCC6)o5)ccc34)cc2)nc1 [GW567142A] | 0.8742 | – |

| Structure (SMILES) | fold change in fluorescence relative to zaprinast alone | other results |
| --- | --- | --- |
| c1ccc(Oc2ccc(Nc3ccnc4cc(-c5ccc(CN6CCCCC6)o5)ccc34)cc2)nc1 [GW567143X] | 0.8249 | – |
| c1ccc(Oc2ccc(Nc3ccnc4cc(-c5ccc(CNCCN6CCOCC6)o5)ccc34)cc2)nc1 [GW567145X] | 0.643 | – |
| CN(C)Cc1ccc(-c2ccc3c(Nc4ccc(Oc5ccccn5)cc4)ccnc3c2)o1 [GW567148X] | 1.129 | – |
| Nc1nccc(-c2c(-c3ccc(F)cc3)nn3cc(C(F)(F)F)ccc23)n1 [GW568326X] | 1.261 | – |
| OCCCNc1nccc(-c2c(-c3ccc(F)cc3)nn3cc(C(F)(F)F)ccc23)n1 [GW569293X] | 0.8575 | – |
| CS(=O)(=O)CCNCc1nc(-c2ccc3ncnc(Nc4ccc(OCc5cccc(C(F)(F)F)c5)cc4)c3c2)cs1 [GW569530A] | 1.148 | – |
| NS(=O)(=O)c1ccc(Nc2ncc(-c3ccccc3)o2)cc1 [GW572399X] | – | % of control remaining (10 µM): 1.225 |
| CCN(CC)S(=O)(=O)c1ccc(OC)c(Nc2ncc(-c3ccccc3)o2)c1 [GW572401X] | 1.034 | – |
| N#Cc1c(NC(=O)c2ccccc2F)sc2c1CCCC2 [GW572738X] | 1.241 | – |
| CS(=O)(=O)CCNCc1ccc(-c2ccc3ncnc(Nc4ccc(OCc5ccccc5)c(C(F)(F)F)c4)c3c2)o1 [GW574782A] | 0.7605 | – |
| CS(=O)(=O)CCNCc1ccc(-c2ccc3ncnc(Nc4ccc(OCc5ccccc5)c(Cl)c4)c3c2)o1 [GW574783B] | – | fold change in fluorescence relative to zaprinast alone (10 µM): 0.7755 and 0.8833 |
| COc1ccc(Nc2ncc(-c3ccccc3)o2)cc1OC [GW575533A] | 1.197 | – |
| Cc1ccc(Nc2ccnc(Nc3cccc(C(N)=O)c3)n2)cc1O [GW575808A] | 1.342 | – |
| CS(=O)(=O)CCNCc1ccc(-c2ccc3ncnc(Nc4ccc(OCc5cccc(F)c5)c(C(F)(F)F)c4)c3c2)o1 [GW576484X] | 0.5624 | – |
| [O-][S+]1CCN(Cc2ccc(-c3ccc4ncnc(Nc5ccc(OCc6ccccc6)c(F)c5)c4c3)o2)CC1 [GW576924A] | 0.1384 | – |
| COc1ccccc1Nc1ncc(-c2ccccc2)o1 [GW577921A] | 0.9668 | – |
| CN1CCN(Cc2cccc(-c3ccc4c(Nc5ccc(Oc6ccccc6)cc5)ccnc4c3)c2)CC1 [GW578342X] | 1.603 | – |
| COc1cc(/C=N/Nc2ncnc3[nH]ncc23)ccc1O [GW578748X] | 0.8277 | – |
| Cc1ccc(Nc2ccnc(Nc3ccc4c(c3)CS(=O)(=O)C4)n2)cc1O [GW579362A] | 1.38 | – |
| CS(=O)(=O)CCNCc1ccc(-c2ccc3ncnc(Nc4ccc(OCc5ccccc5)c(Br)c4)c3c2)o1 [GW580496A] | 1.191 | – |
| CCS(=O)(=O)c1ccc(OC)c(Nc2ncc(-c3cccc(OC)c3)o2)c1 [GW580509X] | 1.14 | – |
